Source: US11633512B2, “Method for disinfecting soils or other agricultural growing media” (Agrozono, S.L., priority 2017, dated 2023)
Like-named read-outs stand apart in the source and are kept apart here.

Key:
nematodes (Meloidogyne) = experiment: Disinfection of nematodes in Padrón pepper crop (greenhouse); assay type: in vivo, Meloidogyne sp.
Description: On a 500 m^2 surface of a greenhouse, with a water consumption of 3000 l/h, the disinfection with ozone was performed at a dose of 6 ppm, revising with the REDOX readings that a reading of 1000 mV is obtained in the farthest drip emitters, starting from a value of 185 mV in the irrigation water without ozone.
When the treatment ends, the inoculation of the microorganism formula (1) is performed (see example 1). Seven days after performing the treatment, samples of earth are taken to see the level of nematode infestation, observing a decrease of 90% of the population.

nematodes = experiment: Evolution of nematodes in soil after ozone treatment and inoculation of microorganisms; assay type: in vivo; conditions: 5.5 ppm of ozone for 2 hours; before treatment 480 juveniles/100 cc of earth
[1] = tested on: Sclerotinia sp, Fusarium oxysporum and Phytophthora citrophthora; experiment: Disinfection of infected soil in containers: survival of phytopathogenic fungi; assay type: in vivo; parameters: reduction of pathogenic fungi: concentration or dose not given beside the values
[2] = tested on: tomato plants, Lycopersicum esculentum; experiment: Phytotoxicity and plant development of tomato plants transplanted into treated soil; assay type: in vivo
Description: Afterwards, as mentioned earlier, once the first disinfection was finished, tomato seedlings were transplanted into the bins in order to evaluate the “residual effect” of the treatment. Subsequently, the study of the plant development of the plants was performed.
After the first application of the disinfection method, on 19 Sep. 2014, 2 tomato plants were transplanted per container. The residual effect of the ozone was evaluated.
Throughout the assay, the parameters evaluated were: • Flow rate and ppm ozone at the outlet. • Microbial evaluation of the soil (t=0; t=7 days and t=30 days). • Relationship of the depth with the possible fungicidal effect. • Having established the tomato plants, it was evaluated if the treatments caused phytotoxicity.
The parameters that will be observed in the crop will be the appearance of necrosis and burning on leaves and fruits. • Plant development of the crop.
After the first application of the treatment with ozone, 2 tomato plants were transplanted into each of the containers. The growth of the plants was evaluated for three months, ending the analysis of this parameter on 2 January due to frost in the area (see FIGS. 5a and 5b).

microorganisms = conditions: cited from earlier work
[3] = tested on: Erwinia amylovora and Clavibacter michiganensis; experiment: Disinfection of infected soil in containers: survival of phytopathogenic bacteria; assay type: in vivo
Description: In order to achieve the aforementioned objectives, soil without crops was infected with the phytopathogenic species Sclerotinia, Fusarium, Erwinia, Phytophthora and Clavibacter. The assay was performed in Lorca (Murcia). It took place in open air in bins with soil without crops and wherein tomatoes, peppers and melons had been grown previously. After performing the first application of the method of the present invention, tomato plants, Lycopersicum esculentum, were transplanted, the response of the plants to the treatments being evaluated.
The microbiological content of the soil was evaluated at different depths: 20, 40 and 60 cm., before and after the applications.
Containers were installed with a known volume of 1000 l (1×1×1 m) in field. Moreover, a medium proceeding from a greenhouse with melons, peppers and tomatoes having been grown there previously was selected and homogenised. Subsequently, the containers were filled with this medium.
In the laboratory, the following species were cultivated in vitro: • Phytopathogenic bacteria: Erwinia amylovora and Clavibacter michiganensis • Phytopathogenic fungi: Sclerotinia sp, Fusarium oxysporum and Phytophthora citrophthora
Each microorganism was grown in liquid medium until reaching a concentration of 10^8 ufc/ml. For each of the bins, 1 litre of microbial solution was prepared.
Then the pathogenic microorganisms were inoculated in the medium, periodic irrigations were performed until reaching the capacity of the medium, samples were taken at different depths (20 cm, 40 cm and 60 cm) and the phytopathogens were counted in said samples, in order to verify the permanence and presence of phytopathogens in the soil.
A first application of the disinfection method with ozone was performed. To do so, the ozonation equipment was inserted into the irrigation system and the parameters of said equipment were adjusted in order to achieve ozonated water with at least 2 ppm of dissolved ozone. Subsequently, the soil was left to rest for 30 min and the tomato plants, Lycopersicum esculentum, were transplanted. Subsequently, a second application of the disinfection method with ozone was performed in the same conditions indicated previously and, after letting the treated soil rest for 30 min, the microorganism formula (1) was inoculated.
In order to analyse the effect of the treatment on the disinfection of the soil, samples were taken at different depths (20 cm, 40 cm and 60 cm) and on different dates, and the microbial load in each of the samples was analysed.
In this section the data obtained is described. As explained in the assay protocol, soil samples were taken at different depths (20 cm, 40 cm and 60 cm) and quality controls were performed quantifying the number of pathogenic fungi and bacteria present.

[4] = cited from earlier work
coliform bacteria = conditions: cited from earlier work

**Q.** Which “Meloidogyne sp. after the disinfection” value (nematodes (Meloidogyne); ozonated irrigation, crop in full production, before disinfection 88 juveniles/100 cc soil) does the source give for `O=[O+][O-]` [ozone] here?
**A.** 8 juveniles/1 cc soil

**Q.** And the “decrease of the nematode population” value (nematodes (Meloidogyne); ozone 6 ppm, then inoculation of microorganism formula (1), soil samples seven days after treatment)?
**A.** 90%

**Q.** What about the “presence of juveniles after the treatment with ozone” value (nematodes) of the same compound?
**A.** 44 /100 cc of earth

**Q.** What about the “reduction of pathogenic fungi” value ([1]; application 1, 24 hours after application, depth 20 cm) of the same compound?
**A.** 100%

**Q.** What about the “reduction of pathogenic fungi” value ([1]; application 1, 24 hours after application, depth 60 cm) of the same compound?
**A.** 100%

**Q.** And the “reduction of pathogenic fungi” value ([1]; application 2, depth 20 cm)?
**A.** 100%

**Q.** And the “fungi present a month after application” value ([1]; application 2, depth 20 cm, 30 days)?
**A.** traces of fungi appearing a month later

**Q.** What about the “reduction of pathogenic fungi” value ([1]; application 2, depth 40 cm, effect prolonged for 30 days) of the same compound?
**A.** 100%

**Q.** And the “reduction of pathogenic fungi” value ([1]; application 2, depth 60 cm, effect prolonged for 30 days)?
**A.** 100%

**Q.** What about the “disinfection against the phytopathogenic fungi tested” value ([1]; overall result of the soil assays, ozonated water at least 2 ppm) of the same compound?
**A.** 100%

**Q.** And the “plant development of tomato plants” value ([2]; plants transplanted after first application into infected, treated soil)?
**A.** vigorous plant development

**Q.** What about the “phytotoxicity: growth and plant development” value ([2]; three months after the transplant) of the same compound?
**A.** normal growth and plant development

**Q.** What about the “application period necessary for disinfection” value (microorganisms) of the same compound?
**A.** 5 s

**Q.** And the “time needed in order to eliminate microorganisms” value (microorganisms)?
**A.** four

**Q.** And the “mortality of pathogenic mesophilic bacteria” value ([3]; after first application of ozonated water)?
**A.** less than 50%

**Q.** And the “reduction of pathogenic mesophilic bacteria” value ([3]; after second application)?
**A.** 50%

**Q.** What about the “reduction of pathogenic mesophilic bacteria” value ([3]; after second application, listed as ozonated water) of the same compound?
**A.** at least 50%

**Q.** And the “reduction of populations of pathogenic bacteria compared with control” value ([3]; application 1, all depths tested except 60 cm)?
**A.** less than 50%

**Q.** What about the “completeness of reduction of pathogenic bacteria” value ([3]; application 2) of the same compound?
**A.** the reduction was not complete

**Q.** And the “reduction of pathogenic mesophilic bacteria” value ([3]; second application, depth 60 cm)?
**A.** 60%

**Q.** And the “useful life of ozone” value ([4]; water temperature of 15° C.)?
**A.** 30 min

**Q.** And the “useful life of ozone” value ([4]; water temperature of 25° C.)?
**A.** 15 min

**Q.** And the “time until degradation of the ozone into oxygen” value ([4]; water without organic matter, pH of 7, water temperature of 15° C.)?
**A.** about 30 minutes

**Q.** What about the “time to kill 99% of 60,000 coliform bacteria/ml” value (coliform bacteria) of the same compound?
**A.** 2.8 s
